Data from PubChem BioAssay AID248 (DTP/NCI, 2004).
Values joined by “and” are separate entries in the source; they are usually repeats but may differ in a detail not shown here. Identical values can stand only once. Toxic doses and inconclusive results are not listed. No stated cut-off is given here; in the data, active means T/C of 150% or more; inactive means T/C below 125%.

Tested on: L1210 leukemia ip in BDF1 mice, survival T/C
Assay: NCI In Vivo Anticancer Drug Screen. Data for tumor model L1210 Leukemia (intraperitoneal) in B6D2F1 (BDF1) mice
Details: endpoint: mean survival time, higher = longer survival
In short: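 Ratio derived from survival: compound-dosed mice over vehicle-dosed mice, all bearing a transplantable tumor.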

[1] = dose: 100.0 mg/kg/injection, schedule: Q01DX001 (ip), vehicle: Klucel (hydroxypropylcellulose) (HPC)
[2] = dose: 200.0 mg/kg/injection, schedule: Q01DX001 (ip), vehicle: Klucel (hydroxypropylcellulose) (HPC)
[3] = dose: 400.0 mg/kg/injection, schedule: Q01DX001 (ip), vehicle: Klucel (hydroxypropylcellulose) (HPC)
[4] = dose: 100.0 mg/kg/injection, schedule: Q04DX003 (ip), vehicle: saline with Tween-80
[5] = dose: 200.0 mg/kg/injection, schedule: Q04DX003 (ip), vehicle: saline with Tween-80
[6] = dose: 100.0 mg/kg/injection, schedule: Q01DX009 (ip), vehicle: saline with Tween-80
[7] = dose: 200.0 mg/kg/injection, schedule: Q01DX009 (ip), vehicle: saline with Tween-80
[8] = dose: 75.0 mg/kg/injection, schedule: Q01DX009 (ip), vehicle: saline with Tween-80
[9] = dose: 2.5 mg/kg/injection, schedule: Q01DX001 (ip), vehicle: saline
[10] = dose: 5.0 mg/kg/injection, schedule: Q01DX001 (ip), vehicle: saline
[11] = dose: 100.0 mg/kg/injection, schedule: Q01DX001 (ip), vehicle: saline
[12] = dose: 200.0 mg/kg/injection, schedule: Q01DX001 (ip), vehicle: saline
[13] = dose: 100.0 mg/kg/injection, schedule: Q01DX009 (ip), vehicle: saline
[14] = dose: 100.0 mg/kg/injection, schedule: Q01DX001 (ip), vehicle: carboxymethylcellulose (CMC)
[15] = dose: 200.0 mg/kg/injection, schedule: Q01DX001 (ip), vehicle: carboxymethylcellulose (CMC)
[16] = dose: 400.0 mg/kg/injection, schedule: Q01DX001 (ip), vehicle: carboxymethylcellulose (CMC)
[17] = dose: 100.0 mg/kg/injection, schedule: Q01DX001 (ip), vehicle: other
[18] = dose: 400.0 mg/kg/injection, schedule: Q01DX001 (ip), vehicle: other
[19] = dose: 100.0 mg/kg/injection, schedule: Q04DX002 (ip), vehicle: Klucel (hydroxypropylcellulose) (HPC)
[20] = dose: 200.0 mg/kg/injection, schedule: Q04DX002 (ip), vehicle: Klucel (hydroxypropylcellulose) (HPC)
[21] = dose: 400.0 mg/kg/injection, schedule: Q04DX002 (ip), vehicle: Klucel (hydroxypropylcellulose) (HPC)

Measured: T/C

CC1(C)CC2(C)OC3(C)CC(C)(C)OC3(C)OC2(C)O1 (stereo not given)
inactive: [1] 107 % of control | [2] 102 % of control | [3] 102 % of control

COc1ccc2nc(N)sc2c1
inactive: dose: 12.5 mg/kg/injection, schedule: Q01DX009 (ip), vehicle: saline with Tween-80 96 % of control | dose: 25.0 mg/kg/injection, schedule: Q01DX009 (ip), vehicle: saline with Tween-80 89 % of control | dose: 50.0 mg/kg/injection, schedule: Q01DX009 (ip), vehicle: saline with Tween-80 97 % of control and 91 % of control | dose: 50.0 mg/kg/injection, schedule: Q04DX003 (ip), vehicle: saline with Tween-80 107 % of control | [4] 112 % of control | [5] 93 % of control

c1ccc(Nc2n[n+](-c3ccccc3)no2)cc1
inactive: [6] 106 % of control | [4] 108 % of control | [7] 101 % of control | [5] 100 % of control | dose: 400.0 mg/kg/injection, schedule: Q01DX009 (ip), vehicle: saline with Tween-80 108 % of control | dose: 400.0 mg/kg/injection, schedule: Q04DX003 (ip), vehicle: saline with Tween-80 110 % of control

Cn1cnc2c(SCc3ccccc3)ncnc21
inactive: [8] 97 % of control | [6] 104 % of control | [7] 117 % of control

O=C1CCCC[CH]1[Hg][Cl] (stereo not given)
inactive: dose: 1.25 mg/kg/injection, schedule: Q01DX001 (ip), vehicle: saline 95 % of control | [9] 96 % of control | [10] 87 % of control

Cc1cc(C)c2nc(Cl)cc(C)c2c1
inactive: [11] 91 % of control | [12] 91 % of control | dose: 400.0 mg/kg/injection, schedule: Q01DX001 (ip), vehicle: saline 104 % of control

O=C1CCCC23C4CCCC4C12C1CCCC13 (stereo not given)
inactive: dose: 100.0 mg/kg/injection, schedule: Q04DX002 (ip), vehicle: gum acacia 100 % of control | dose: 200.0 mg/kg/injection, schedule: Q04DX002 (ip), vehicle: gum acacia 97 % of control | dose: 400.0 mg/kg/injection, schedule: Q04DX002 (ip), vehicle: gum acacia 100 % of control

CCCCCC(CN(C)C)C(=O)/C=C\c1ccc(Cl)cc1Cl (stereo not given)
inactive: dose: 12.5 mg/kg/injection, schedule: Q04DX003 (ip), vehicle: alcohol 87 % of control | dose: 25.0 mg/kg/injection, schedule: Q04DX003 (ip), vehicle: alcohol 97 % of control | dose: 50.0 mg/kg/injection, schedule: Q04DX003 (ip), vehicle: alcohol 97 % of control

CC1(C)N=C(N)N=C(N)N1NC(=O)c1ccc(F)cc1
inactive: [13] 102 % of control | dose: 200.0 mg/kg/injection, schedule: Q01DX009 (ip), vehicle: saline 96 % of control

COC(=O)C1C2CCC1(C)C(O)C2 (stereo not given)
inactive: [8] 96 % of control | dose: 150.0 mg/kg/injection, schedule: Q01DX009 (ip), vehicle: saline with Tween-80 107 % of control | dose: 300.0 mg/kg/injection, schedule: Q01DX009 (ip), vehicle: saline with Tween-80 100 % of control

O=C(O)C1C(c2ccccc2)C2(c3ccccc3)C(=O)C1(c1ccccc1)C(c1ccccc1)=C2c1ccccc1 (stereo not given)
inactive: dose: 25.0 mg/kg/injection, schedule: Q01DX001 (ip), vehicle: saline with Tween-80 98 % of control | dose: 50.0 mg/kg/injection, schedule: Q01DX001 (ip), vehicle: saline with Tween-80 88 % of control | dose: 100.0 mg/kg/injection, schedule: Q01DX001 (ip), vehicle: saline with Tween-80 91 % of control | dose: 200.0 mg/kg/injection, schedule: Q01DX001 (ip), vehicle: saline with Tween-80 90 % of control | dose: 400.0 mg/kg/injection, schedule: Q01DX001 (ip), vehicle: saline with Tween-80 90 % of control

Cc1cc([N+](=O)[O-])c(C)cc1NC(=O)c1ccccc1
inactive: [14] 91 % of control | [15] 92 % of control | [16] 94 % of control

Cn1c(=O)c2[nH]c(-c3cccs3)nc2n(C)c1=O
inactive: dose: 50.0 mg/kg/injection, schedule: Q01DX001 (ip), vehicle: other 101 % of control | [17] 90 % of control | dose: 200.0 mg/kg/injection, schedule: Q01DX001 (ip), vehicle: other 97 % of control | [18] 92 % of control

COC(=O)C(CCC(=O)O)NC(=O)C(F)(F)F (stereo not given)
inactive: [1] 89 % of control | [2] 97 % of control | [3] 89 % of control

CC(=O)Nc1ccc2c(c1)[nH]c(=O)c1ccccc12
inactive: [14] 96 % of control | [15] 93 % of control | [16] 96 % of control

O=C1Cc2ccccc2CNN1
inactive: [17] 90 % of control | [18] 102 % of control

O=C(Nc1ccc(C(=O)O)cc1)Nc1cccc(C(F)(F)F)c1
inactive: [6] 93 % of control | [7] 87 % of control

COC(=O)C1OCOC2C(COS(=O)(=O)c3ccc(C)cc3)OCOC12 (stereo not given)
inactive: dose: 50.0 mg/kg/injection, schedule: Q04DX002 (ip), vehicle: Klucel (hydroxypropylcellulose) (HPC) 100 % of control | [19] 98 % of control and 111 % of control | [20] 95 % of control and 101 % of control | [21] 101 % of control

O=C(C[n+]1cccc(C(=O)Nc2ccc(Cl)cc2)c1)Nc1ccccc1
inactive: dose: 100.0 mg/kg/injection, schedule: Q04DX003 (ip), vehicle: saline 92 % of control | dose: 200.0 mg/kg/injection, schedule: Q04DX003 (ip), vehicle: saline 101 % of control

CC(=O)OC1CCC2(C)C3CCC4(C)C(C(C)/C=C/C(C)C(C)C)CCC4C34C=CC2(C1)C1C(=O)OC(=O)C14 (stereo not given)
inactive: dose: 100.0 mg/kg/injection, schedule: Q04DX002 (ip), vehicle: saline 93 % of control | dose: 200.0 mg/kg/injection, schedule: Q04DX002 (ip), vehicle: saline 96 % of control | dose: 400.0 mg/kg/injection, schedule: Q04DX002 (ip), vehicle: saline 89 % of control

Cc1cc(C)c(CCl)c(C)c1CCl
inactive: [11] 119 % of control

CCN(CC)Cc1ccccc1COC(=O)c1cccc(Cl)c1
inactive: [19] 103 % of control | [20] 103 % of control | [21] 92 % of control

COC(=O)C(C)[P+](c1ccccc1)(c1ccccc1)c1ccccc1 (stereo not given)
inactive: dose: 1.25 mg/kg/injection, schedule: Q01DX009 (ip), vehicle: saline 108 % of control | dose: 1.65 mg/kg/injection, schedule: Q01DX009 (ip), vehicle: saline 104 % of control and 114 % of control | [9] 96 % of control | dose: 2.5 mg/kg/injection, schedule: Q01DX009 (ip), vehicle: saline 107 % of control and 119 % of control | dose: 3.75 mg/kg/injection, schedule: Q01DX009 (ip), vehicle: saline 109 % of control and 110 % of control | [10] 110 % of control | dose: 5.0 mg/kg/injection, schedule: Q01DX009 (ip), vehicle: saline 97 % of control

Cc1cc(=O)[nH]c2ccccc12
inactive: [4] 91 % of control | [5] 95 % of control

O=C1Oc2ccccc2C(=O)Oc2ccccc2C(=O)Oc2ccccc2C(=O)Oc2ccccc21
inactive: dose: 75.0 mg/kg/injection, schedule: Q01DX001 (ip), vehicle: saline 87 % of control

CC1(C)N=C(N)N=C(N)N1c1cccc(C(=O)Nc2cccc(S(=O)(=O)F)c2)c1
inactive: dose: 6.25 mg/kg/injection, schedule: Q#A X018 (ip), vehicle: saline 97 % of control | dose: 12.5 mg/kg/injection, schedule: Q01DX009 (ip), vehicle: saline 103 % of control | dose: 12.5 mg/kg/injection, schedule: Q#A X018 (ip), vehicle: saline 101 % of control | dose: 25.0 mg/kg/injection, schedule: Q01DX009 (ip), vehicle: saline 101 % of control | dose: 25.0 mg/kg/injection, schedule: Q#A X018 (ip), vehicle: saline 101 % of control | dose: 50.0 mg/kg/injection, schedule: Q01DX009 (ip), vehicle: saline 95 % of control and 107 % of control | dose: 50.0 mg/kg/injection, schedule: Q#A X018 (ip), vehicle: saline 101 % of control | [11] 105 % of control | [13] 104 % of control | [12] 94 % of control
